Test results: publication PMC8557866, “Novel Small Molecule Growth Inhibitor Affecting Bacterial Outer Membrane Reduces Extraintestinal Pathogenic Escherichia coli (ExPEC) Infection in Avian Model” (Microbiology Spectrum, 2021)
Converted amounts (≈) assume the structure as drawn.

Experiments:
APEC serotype O78 = conditions: for Mean APEC load, Heart / Mean APEC load, Kidney / Mean APEC load, Liver / Mean APEC load, Lung / Mean lesion score in Air sacs / Mean lesion score in Heart / Mean lesion score in Liver / Mean lesion score in Lung / Cumulative lesion score / Mortality reduction compared to PC group / % reduction in severity, Air sacs lesions / % reduction in severity, Heart lesions / % reduction in severity, Liver lesions / % reduction in severity, Lung lesions / log reduction in APEC load, Heart / log reduction in APEC load, Kidney / log reduction in APEC load, Liver / log reduction in APEC load, Lung: efficacy trial, oral; for Cumulative lesion score: PC 6.2; for Mortality reduction compared to PC group: PC mortality 58.3%; for % reduction in severity, Air sacs lesions / % reduction in severity, Heart lesions / % reduction in severity, Liver lesions / % reduction in severity, Lung lesions / log reduction in APEC load, Heart / log reduction in APEC load, Kidney / log reduction in APEC load, Liver / log reduction in APEC load, Lung: vs PC; for BWG (body weight gain): in vivo
Method: The efficacy of GIs was assessed using commercial broiler chickens (n = 6/group). […] GI compounds (ChemBridge, San Diego, CA) dissolved in dimethyl sulfoxide (DMSO) were administered orally using a syringe, twice a day, from day 4 (1 day before APEC infection) to day 8 (3 days postinfection [dpi]). The dose of each GI is described in Table S1. […] Chickens that were infected and vehicle-treated (positive control [PC]) and noninfected and nontreated (negative control [NC]) were included as controls. On day 5, chickens were infected subcutaneously (s.c.) with rifampin-resistant (Rif^r) APEC serotype O78 ([18]) (1 × 10^7 CFU/chicken). […] To prepare the APEC inoculum for infection, Rif^r APEC O78 (50 μg/ml rifampin) was grown to logarithmic phase in LB medium, washed twice with phosphate-buffered saline (PBS), and adjusted to an optical density at 600 nm (OD600) of 0.1 (5 × 10^7 CFU/ml). The clinical signs and mortality were recorded until 7 dpi. Chickens that died during this period were necropsied on the same day, lesions in internal organs (liver, heart, lung, and air sacs) were scored as described previously ([63], [71]), and the APEC loads were quantified in internal organs (liver, heart, lung, and kidney) by plating the tissue homogenates on MacConkey agar plates containing 50 μg/ml rifampin ([18]). At 7 dpi (day 12), all live birds were euthanized, lesions were scored, and the APEC loads in internal organs were quantified as described above. The body weight of chickens was measured before GI treatment (day 3) and at the day of necropsy (day 12).

APEC O78 = test system: APEC O78; parameters: method as in PMID 30333507; conditions: cited from earlier work

Compound	Mean APEC load, Heart (APEC serotype O78) [Log CFU/g tissues]	Mean APEC load, Kidney (APEC serotype O78) [Log CFU/g tissues]	Mean APEC load, Liver (APEC serotype O78) [Log CFU/g tissues]	Mean APEC load, Lung (APEC serotype O78) [Log CFU/g tissues]	Mean lesion score in Air sacs (APEC serotype O78)	Mean lesion score in Heart (APEC serotype O78)	Mean lesion score in Liver (APEC serotype O78)	Mean lesion score in Lung (APEC serotype O78)	Cumulative lesion score (APEC serotype O78)	Mortality reduction compared to PC group (APEC serotype O78) [%]	% reduction in severity, Air sacs lesions (APEC serotype O78) [%]	% reduction in severity, Heart lesions (APEC serotype O78) [%]	% reduction in severity, Liver lesions (APEC serotype O78) [%]	% reduction in severity, Lung lesions (APEC serotype O78) [%]	log reduction in APEC load, Heart (APEC serotype O78) [Log CFU/g tissues]	log reduction in APEC load, Kidney (APEC serotype O78) [Log CFU/g tissues]	log reduction in APEC load, Liver (APEC serotype O78) [Log CFU/g tissues]	log reduction in APEC load, Lung (APEC serotype O78) [Log CFU/g tissues]	BWG (body weight gain) (APEC serotype O78)	MIC (APEC O78) [µM]
CC1CCCN(CCC(=O)c2ccc(Br)cc2)C1 (centres unmarked) [GI-1]	6.8	6.6	6.7	6.4	1.5	2.0	2.0	0.7	6.2	8.3	−5.9	4	−20	33.3	-1.8	-1.1	-2.0	-1.4	165.6±69.2	200 (≈ 62 µg/mL)
COc1cc(CNCCc2ccc3ccccc3c2)ccc1OCC(O)CN1CCCC1 (centres unmarked) [GI-2]	4.1	3.8	3.4	3.5	1.2	1.8	1.7	0.7	5.3	25	17.7	12	0	33.3	0.8	1.7	0.9	1.1	125.5±34.7	100 (≈ 43.5 µg/mL)
COc1cc(CNCCc2ccc(C)cc2)ccc1OCC(O)CN1CCCC1 (centres unmarked) [GI-3]	7.0	6.9	6.5	7.0	1.8	2	2	1	6.8	–	−29.4	4	−20	0	-2.1	-1.4	-1.8	-2.0	254.6±95	100 (≈ 39.9 µg/mL)
